According to article PMC7396997, “Discovery of 4-Anilinoquinolinylchalcone Derivatives as Potential NRF2 Activators” (Molecules, 2020):
Where “and” joins values, the source holds several entries; their conditions need not be identical. Equal values may be shown once. Read-outs that look alike come from different tables or passages of the source.

Legend:
NRF2 [1] = experiment: ARE-driven luciferase reporter assay (NRF2 activity) in HaCaT/ARE stable cells; type: cell-based, human; conditions: for Emax of NRF2 promoter activity / EC50: HaCaT/ARE cells, 18 h, dose-response; for EC50: read-out: EC50 of NRF2 promoter activity
Text: In this study, we used a stable ARE-driven reporter system to screen the potential NRF2 activators.

HaCaT cells = experiment: Cytotoxicity, 72 h resazurin cell viability assay; type: cell-based, human
Description: (§1) Cells were seeded in a 96-well plate contained 100 μL culture medium in triplicate and treated with several compounds for 72 h. At the assay time point, resazurin (Cayman Chemical) was added and further incubated for 4 h at 37 °C. Fluorescence of the reduced resazurin was measured as described previously.
(§2) Figure 3 The cytotoxicity of 12b, 13b, and 14b in HaCaT cells. HaCaT cells were treated with indicated concentrations of these three compounds for 72 h. Cell viability was determined by a resazurin assay as described in the Materials and Methods section. Data presented as mean ± SD from three independent experiments.

[2] = system: NRF2 target genes (HO1, G6PD, GCLC); experiment: qRT-PCR of NRF2 target genes in HaCaT cells; type: cell-based, human; conditions: 18 h, real-time PCR
Description: (§3) To further evaluate the effect of compound 13b on NRF2 activation, the mRNA level of NRF2 target genes were determined by real-time PCR.
(§4) RNA was prepared by using the TRIzol Reagent (Thermo Scientific, Madison, WI, USA) and was reverse transcribed into cDNA using a TOOLs Easy Fast RT Kit (TOOLs Biotechnology, New Taipei City, Taiwan). PCR was performed on an ABI StepOne Plus System (Applied Biosystems, Foster City, CA, USA) using the KAPA SYBR® FAST qPCR Master Mix (2X) Kit (Sigma-Aldrich, St. Louis, MO, USA). The mRNA level was normalized using the glyceraldehyde 3-phosphate dehydrogenase (GAPDH) mRNA level as the standard. The following primers were used: NRF2 forward: 5′-[…] and reverse: 5′-[…]; HO1 forward: 5′-GCCAGCAACAAAGTGCAAG and reverse: 5′-[…]; NQO1 forward: 5′-[…] and reverse: 5′-[…]; GCLC forward: 5′-[…] and reverse: 5′-[…]; G6PD forward: 5′-CAACATCGCCTGCGTTA and reverse: 5′-CTTGACCTTCTCATCACGG; and GAPDH forward: 5′-[…] and reverse: 5′-[…].
Figure 4 Compound 13b increased the expression of NRF2 target genes in the HaCaT cell. HaCaT cells were treated with indicated concentrations of 13b for 18 h. Total RNA was isolated and submitted to reverse transcription and real-time PCR for the detection of the NRF2 target genes including HO1 (A), GLCL (B), G6PD (C), and NQO1 (D). Data are expressed as normalized mRNA level and presented as mean ± SD from three independent experiments. The asterisk (*) indicates a significant difference between 13b treated groups and control group (* p< 0.05, *** p< 0.001, one-way ANOVA).

NRF2 [3] = experiment: Western blot of NRF2 protein in HaCaT cells; type: cell-based, human; conditions: 8 h
Description: as §3
Cells were washed with PBS and harvested with RIPA lysis buffer (50 mM Tris (pH 7.5), 150 mM NaCl, 1% Tx-100) supplemented with protease and phosphatase inhibitors (1 mM PMSF, 10 μg/mL leupeptin, 50 μg/mL TLCK, 50 μg/mL TPCK, 1 μg/mL aprotinin, 1 mM NaF, 5 mM NaPPi, and 10 mM Na3VO4). The cell lysates were cleared via 10 min spins at 13,000 rpm, 4 °C. Protein concentrations were determined by a Bio-Rad Protein Assay (Bio-Rad, Hercules, CA, USA). Samples corresponded to 20 μg of protein were used for Western blot according to our previous publication. The following antibodies were used: anti-NRF2 (GeneTex, Irvine, CA, USA) and anti-GAPDH (Abcam, Cambridge, MA, USA).
(§5) Figure 5 The compound 13b increased the NRF2 expression at the protein level in the HaCaT cell. (A) HaCaT cells were treated with indicated concentrations of compound 13b for 8 h. Protein expression of NRF2 was determined by Western blot. (B) HaCaT cells were treated with indicated concentrations of 13b for 18 h. Total RNA was isolated and submitted to reverse transcription and real-time PCR for the detection of the NRF2 mRNA level.

NRF2 mRNA = experiment: qRT-PCR of NRF2 mRNA in HaCaT cells; type: cell-based, human; conditions: 18 h, real-time PCR
Description: as §3, §4, §5

HaCaT/ARE cells = experiment: Cell viability (resazurin) in the reporter screen; conditions: for Cell Viability: 10 μM, in % (unit assumed)
Description: Immortalized human keratinocytes HaCaT were cultured in the Dulbecco’s modified Eagle’s medium (DMEM; Gibco BRL, Grand Island, NY, USA) with 10% heat-inactivated fetal bovine serum (HyClone, Logan, UT, USA), penicillin (100 U/mL), and streptomycin (100 μg/mL) in a humidified incubator with 5% CO2. HaCaT/ARE stable cells were grown in DMEM supplemented with 100 μg/mL of hygromycin.
HaCaT/ARE stable cells were seeded (1 × 10^4 cells/well) in a 96 well plate, then were treated with indicated concentrations of compounds for 18 h. At the assay time point, resazurin (Cayman Chemical, Ann Arbor, MI, USA) was added to a final concentration of 0.1 mg/mL and further incubated for 4 h at 37 °C. Fluorescence of the reduced resazurin (ex/em: 530 nm/590 nm) was measured from the culture supernatant by using a Synergy HT Multi-Mode Reader (BioTek, Winooski, VT, USA) to determine cell viability. The cells were then harvested for luciferase activity measurements according to the manufacturer’s protocol (Promega Corporation, Madison, WI, USA). Relative luciferase activity was calculated by normalizing luciferase activity to cell viability, and DMSO solvent control was used as 100% activity.

[4] = Cytotoxicity, 72 h resazurin cell viability assay; type: cell-based, human; conditions: human
Description: as §1, §2

GCLM and NQO1 = system: GCLM and NQO1; design: method as in PMID 21539383; conditions: small intestine; cited from earlier work
[5] = 10 μM, 24 h (b12; method b59 says 18 h), luciferase normalised to cell viability, DMSO control = 100%

Compound: (E)-3-{4-[(4-Acetylphenyl)amino]quinolin-2-yl}-1-(4-methoxyphenyl)prop-2-en-1-one [14b]
- % of Relative NRF2 Activity in HaCaT Cell (NRF2 [1]; [5]): 937% and 936.5 ± 39.8%
- Emax of NRF2 promoter activity (NRF2 [1]): 748.5±73.6%
- EC50 (NRF2 [1]): 1580 ± 150 nM
- CC50 (HaCaT cells): 28400 nM

Compound: (E)-3-{4-[(4-acetylphenyl)amino]quinolin-2-yl}-1-(4-fluorophenyl)prop-2-en-1-one [13b]
- % of Relative NRF2 Activity in HaCaT Cell (NRF2 [1]; [5]): 2205% and 2205.2 ± 144.9%
- EC50 (NRF2 [1]): 1950 nM
- CC50 (HaCaT cells; HaCaT cells, 72 h, read-out: CC50): > 100000 nM
- G6PD mRNA expression [2]: significantly increased
- GCLC mRNA expression [2]: significantly increased
- HO1 mRNA expression [2]: significantly increased
- expression of NRF2 protein (NRF2 [3]): effectively enhance
- mRNA of NRF2 (NRF2 mRNA): without altering
- survival rate (HaCaT/ARE cells; 10 µM): 96%
- Cell Viability (HaCaT/ARE cells): 95.7 ± 1.8

Compound: CC(=O)c1ccc(Nc2cc(/C=C/C(=O)c3ccccc3)nc3ccccc23)cc1 [12b, (E)-3-{4-[(4-acetylphenyl)amino]quinolin-2-yl}-1-phenylprop-2-en-1-one]
- Emax of NRF2 promoter activity (NRF2 [1]): 692.8±53.3%
- activity at 10 µM (NRF2 [1]; Homo sapiens, HaCaT, 10 μM, 24 h (b12; method b59 says 18 h), luciferase normalised to cell viability, DMSO control = 100%, read-out: % of Relative NRF2 Activity in HaCaT Cell): 394%
- EC50 (NRF2 [1]; Homo sapiens): 850 ± 40 nM
- CC50 at 72 h [4]: 9300 nM
- Cell Viability (HaCaT/ARE cells): 71.2 ± 1.8

Compound: COc1ccccc1C(=O)/C=C/c1ccccc1C(F)(F)F [Compound 1, (E)-1-(2-methoxyphenyl)-3-[2-(trifluoromethyl)phenyl]prop-2-en-1-one]
- expression of GCLM compared to sulforaphane (GCLM and NQO1): 3 fold
- expression of NQO1 compared to sulforaphane (GCLM and NQO1): 5 fold
